Laboratory results reported in PMC5344255, “Design, Synthesis and Biochemical Evaluation of Novel Selective Estrogen Receptor Ligand Conjugates Incorporating an Endoxifen-Combretastatin Hybrid Scaffold” (Biomedicines, 2016).
“And” between values parts separate entries of the source, which are not always exact repeats. Equal entries are not always repeated. Where two headings read alike, the source gives them in different places. Marks after values point to notes of the source that are not given here.

Key:
HL-60 (TB) = assay: NCI 60 cell line screen; format: cell-based, human; details: HL-60 (TB) (Leukemia)
CCRF-CEM = assay: NCI 60 cell line screen; format: cell-based, human; details: CCRF-CEM (Leukemia)
HCT-2998 = assay: NCI 60 cell line screen; format: cell-based, human; details: HCT-2998 (Colon Cancer)
KM12 = assay: NCI 60 cell line screen; format: cell-based, human; details: KM12 (Colon Cancer)
DU-145 = assay: NCI 60 cell line screen; format: cell-based, human; details: DU-145 (Prostate cancer)
SK-MEL-28 = assay: NCI 60 cell line screen; format: cell-based, human; details: SK-MEL-28 (Melanoma); one-dose 10 µM
NCI-H460 = assay: NCI 60 cell line screen; format: cell-based, human; details: NCI-H460 (Non-Small Cell Lung Cancer)
NCI 60 cell lines = assay: NCI 60 cell line screen, values over the panel; format: cell-based; details: Homo sapiens
HCT-116 = assay: NCI 60 cell line screen; format: cell-based, human; details: HCT-116 (Colon Cancer)
[1] = test system: Ishikawa cell line of human endometrial adenocarcinoma cells; assay: Ishikawa assay, estrogen stimulation of alkaline phosphatase activity; format: cell-based
Description: The Ishikawa assay is used to measure estrogen stimulation of alkaline phosphatase enzyme activity (AlkP) by the Ishikawa cell line of human endometrial adenocarcinoma cells. The Ishikawa assay provides a measure of the agonist activity of a compound. […] The assay was carried out following the method of Littlefield et al.. The batch of Ishikawa cells were obtained as a gift from Professor R. Hochberg—who developed the alkaline phosphatase assay in Yale University, CT, USA.
The Ishikawa assay is used to measure estrogen stimulation of alkaline phosphatase enzyme activity (AlkP) by the Ishikawa cell line of human endometrial adenocarcinoma cells. […] The conjugate was dosed in duplicate.

OVCAR-3 = assay: NCI 60 cell line screen; format: cell-based, human; details: OVCAR-3 (Ovarian Cancer); one-dose 10 µM
HOP-62 = assay: NCI 60 cell line screen; format: cell-based, human; details: HOP-62 (Non-Small Cell Lung Cancer)
SK-MEL-5 = assay: NCI 60 cell line screen; format: cell-based
NCI-H332M = assay: NCI 60 cell line screen; format: cell-based, human; details: NCI-H332M (Non-Small Cell Lung Cancer)
MCF-7 = assay: NCI 60 cell line screen; format: cell-based; details: Homo sapiens
NCI-H23 = assay: NCI 60 cell line screen; format: cell-based
SW-620 = assay: NCI 60 cell line screen; format: cell-based, human; details: SW-620 (Colon Cancer)
A549/ATCC = assay: NCI 60 cell line screen; format: cell-based, human; details: A549/ATCC (Non-Small Cell Lung Cancer)
[2] = test system: MDA-MB-231 human breast cancer cells; assay: MTT assay for antiproliferative effects in MDA-MB-231; format: cell-based; details: MDA-MB-231, MTT assay
UACC-257 = assay: NCI 60 cell line screen; format: cell-based, human; details: UACC-257 (Melanoma); one-dose 10 µM
UACC-62 = assay: NCI 60 cell line screen; format: cell-based, human; details: UACC-62 (Melanoma); one-dose 10 µM
RPMI-8226 = assay: NCI 60 cell line screen; format: cell-based, human; details: RPMI-8226 (Leukemia)
EKVX = assay: NCI 60 cell line screen; format: cell-based, human; details: EKVX (Non-Small Cell Lung Cancer)

CCC(=C(c1ccc(O)cc1)c1ccc(OCCN(C)C(=O)/C(=C/c2ccc(OC)c(O)c2)c2cc(OC)c(OC)c(OC)c2)cc1)c1ccc(O)cc1 (mixture of isomers) [Compound 28, (E)-N-(2-{4-[(E/Z)-1,2-Bis-(4-hydroxyphenyl)but-1-enyl]-phenoxy}ethyl)-3-(3-hydroxy-4-methoxyphenyl)-N-methyl-2-(3,4,5-trimethoxyphenyl)acrylamide]
GI% (10^−5 M) (HL-60 (TB); one-dose 10 µM): 100 ^d,f %
GI50 (HL-60 (TB); Homo sapiens, five-dose screen): 1400 nM
GI% (10^−5 M) (CCRF-CEM; one-dose 10 µM): 72.48%
GI50 (CCRF-CEM; Homo sapiens, five-dose screen): 1770 nM
GI% (10^−5 M) (HCT-2998; one-dose 10 µM): 100 ^d,j %
GI50 (HCT-2998; Homo sapiens, 60 cell, five-dose screen): 1250 nM
GI50 (KM12; Homo sapiens, five-dose screen): 1260 nM
GI% (10^−5 M) (KM12; one-dose 10 µM): 100 ^d,m %
GI% (10^−5 M) (DU-145; one-dose 10 µM): 100 ^d,o %
GI50 (DU-145; Homo sapiens, five-dose screen): 1660 nM
GI% (10^−5 M) (SK-MEL-28): 1.65%
GI50 (NCI-H460; Homo sapiens, five-dose screen): 1420 nM
GI% (10^−5 M) (NCI-H460; one-dose 10 µM): 98% and 98.38%
CC50 (NCI 60 cell lines; in all but 4 cell lines of the panel, read-out: LC50 (the source's name)): > 50000 nM
GI50 (NCI 60 cell lines; read-out: MG-MID, mean GI50): 1450 nM
GI50 (NCI 60 cell lines; read-out: log GI50 (mean) (converted)): 1620 nM
inhibition at 10 µM (NCI 60 cell lines; read-out: mean growth inhibition value): 98.7%
GI% (10^−5 M) (HCT-116; one-dose 10 µM): 98% and 97.57%
GI50 (HCT-116; Homo sapiens, five-dose screen): 1800 nM
estrogenic activity (alkaline phosphatase stimulation) ([1]; compound dosed individually): does not display estrogenic stimulation in the cell line
estrogen stimulation (alkaline phosphatase) in mixture with estradiol ([1]; dosed with 1 nM estradiol spike): a reduction in estrogenic stimulation at low concentrations and a more pronounced reduction in estrogen stimulation over the range of concentrations when compared with the Tamoxifen mixture
GI% (10^−5 M) (OVCAR-3): 1%
GI% (10^−5 M) (HOP-62; one-dose 10 µM): 81.99%
GI50 (HOP-62; Homo sapiens, five-dose screen): 2860 nM
CC50 (SK-MEL-5; Homo sapiens, five-dose screen, read-out: LC50 (the source's name)): 34500 nM
lethality (SK-MEL-5; one-dose screen 10 μM): 60%
GI50 (NCI-H332M; Homo sapiens, five-dose screen): 2020 nM
GI% (10^−5 M) (NCI-H332M; one-dose 10 µM): 81.7%
IC50 (MCF-7; MCF7, read-out: GI50 (IC50)): 9.5 nM
CC50 (MCF-7; MCF7, MCF-7, five-dose screen, read-out: LC50 (the source's name)): > 50000 nM
GI50 (NCI-H23; Homo sapiens, NCI-H23): 2190 nM
LC50 (NCI-H23; Homo sapiens, NCI-H23, five-dose screen): 48900 nM
GI% (10^−5 M) (NCI-H23; NCI-H23 (Non-Small Cell Lung Cancer), one-dose 10 µM): 97% and 96.76%
GI50 (SW-620; Homo sapiens, five-dose screen): 1210 nM
GI% (10^−5 M) (SW-620; one-dose 10 µM): 81.32%
GI% (10^−5 M) (A549/ATCC; one-dose 10 µM): 86.97%
GI50 (A549/ATCC; Homo sapiens, five-dose screen): 2880 nM
IC50 [2]: 2480 nM
GI% (10^−5 M) (UACC-257): 2.83%
GI% (10^−5 M) (UACC-62): 0.922%
GI50 (RPMI-8226; Homo sapiens, five-dose screen): 896 nM
GI% (10^−5 M) (RPMI-8226; one-dose 10 µM): 91% and 90.65%
GI% (10^−5 M) (EKVX; one-dose 10 µM): 85.11%
GI50 (EKVX; Homo sapiens, five-dose screen): 2010 nM
